# According to US6846826B2, “Phenoxypropanol connected with phenylpiperazine and phenoxyalkylamine terminal in its side chain” (priority 2001, dated 2005):
# Legend:
# β1 [1] = molecular target: T1, β1 (Rattus norvegicus, UniProt P18090); test: Isolated rat left atrium (electrically driven), antagonism of L-isoproterenol (Schild plot); conditions: for β1 pA2 value, Left atrium: vs L-isoproterenol, mean ± S.E. of six to eight
# T1 construct: The right and left atria were then separated; from tissue; host or cells: isolated rat right atrium (spontaneously beating) and left atrium (electrically driven)
# Experimental: (§1) When the spontaneously beating rate of right atria reached a certain stability, cumulative administration of L-isoproterenol from 1×10^−[…] M caused the heart rate to increase continuously, and a cumulative dose-response curve was obtained. Then the L-isoproterenol was thoroughly washed off with Kreb's solution to recover the right atria's heart rate stability. After the equilibrum was reached again for at least 60 minutes, different concentrations (10^−7, 10^−6, 10^−5 M) of compounds were added. 30 minutes later, cumulative administration of L-isoproterenol from […] were carried out again, and another new cumulative dose-response curve was obtained. Administration of L-isoproterenol started from concentration 1×10^−10 M, and the concentration was raised 0.5 log each time for a total of six times. Cumulative administration interval was when the previous concentration reached its greatest effect, the next concentration would be immediately given. The time interval was approximately 3˜5 minutes, and the EC50 value could be obtained. From Schild plots, the pA2 of compounds could be found. In other groups of rats, after separate administration of test compounds, their pA2 values were obtained.
# (§2) According to the method mentioned by Arunlakshana, O. et al.(Br. J. Pharmacol. Vol.14, pp. 48-57, 1959), which used the logarithm values of compound concentration testings as the x-coordinates, and the logarithm values of blocking agent of similar effect and […] as the y-coordinates, the data obtained were plotted into Figures and the slope of regression found. From x-coordinates of the line of regression, the intercept value was found, which is the pA2 value of the compound under testing. The equation is as follows: [formula] [formula] • [B]=Test compound concentration in moles • KB: equilibrium dissociation constant • n: value of slope • DR: test EC50 divided by control EC50 • CF: EC50 of second or third control groups divided by EC50 of first control group
# The inspontaneously-beating left atrial tissue was obtained from rat's isolated right atrial tissue experiments. […] The contraction rate was 2 Hz and the resting tension 0.5 gm. After 60 minutes of equilibration, the following experiments were performed: • (a) Completion of cumulative concentration-response curve: similar to experimental method on isolated right atrium; • (b) Calculation of pA2 value: similar to calculation method on isolated right atrium.
# Calcium = test: Isolated Wistar rat thoracic aorta, antagonism of CaCl2-induced contraction; conditions: vs CaCl2
# Experimental: (§3) After sacrificing Wistar rat of weight between 200˜300 gm, the thoracic aorta was immediately removed and placed in cold Kreb's solution. The fatty connecting tissue surrounding the vessel wall was removed and the thoracic aorta was cut into rings of length 5 mm. The two ends of each ring was pieced and fixed with “Z” shaped platinum wires. Then the thoracic aorta was suspended in 10 ml of tissue bath, aerated with air mixture (95% O2+5% CO2) and maintained at 37° C., where one end was fixed at the bottom of tissue trough, the other end connected to force transducer to record the long contraction via recorder. The sample was given 1 gm of tension and equilibrated for 60 minutes before the following experiments were carried out.
# After thoracic aorta had reached equilibrium in the tissue trough, cumulative administration of CaCl2 from […] caused the blood vessel contract to increase tension continuously, and a cumulative dose-response curve was obtained. Then the CaCl2 was thoroughly washed off with Kreb's solution to recover the aorta stability. After the equilibrum was reached again for at east 60 minutes, different concentrations as 10^−8, 10^−7, 10^−6 M of test compounds were added. 30 minutes later, cumulative administration of CaCl2 from 3×10^−5˜10^−2 M were carried out again, and another new cumulative dose-response curve was obtained. Cumulative administration interval was when the previous concentration reached its greatest effect, the next concentration would be immediately given. The time interval was approximately 3˜5 minutes, and the EC50 value could be obtained. From Schild plots, the pA2 of test compounds could be found. Calculation of pA2 value: similar to calculation method on isolated right atrium.
# β1 [2] = molecular target: T1, β1; test: Isolated rat right atrium, antagonism of L-isoproterenol-induced rate increase (Schild plot); conditions: for β1 pA2 value, Right atrium: vs L-isoproterenol, mean ± S.E. of six to eight
# Experimental: The entire heart of rat (weighing 200˜300 g) was removed immediately after the rat was sacrificed and the blood drained by incised carotid arteries, and placed in Kreb's solution equilibrated to a mixture of 95% O2 and 5% CO2 at room temperature (20˜25° C.). The right and left atria were then separated.
# The spontaneously-beating right atria was clipped on both end by heart shaped clips, where one end was fixed at the bottom of 10 ml of tissue bath made of physiological saline solution, and temperature maintained at 37° C. The other end of the atria was connected to a force transducer, and isometric contractions and beating rate of the right atria were recorded by COULBOURN AT-High-Speed VideoFigure. After the samples were given 250 mg of contractions and reach equilibrium the following experiments were carried out:
# as §1, §2
# [3] = Heart rate and blood pressure in living rat (anaesthetized, i.v.); format: in vivo, Wistar rat; conditions: via femoral vein, dose not given (method: 0.5; 1.0; 3.0 mg/kg)
# Description: Male Wistar rats, weighing 200˜300 g were abdominal anaesthetized with pentobarbital sodium. Tracheal was cannulated to maintain normal respiration. Polyethylene tube (inside diameter 0.58 mm, outside diameter 0.97 mm) was inserted into the left femoral vein to facilitate drug administration. A 3-way stopcock was used, with one end connected to a syringe for drug injection, while the other end was connected to the syringe filled with physiological saline. The latter was used to prevent residual drugs in the polyethylene tube after injection, which would affect experimental accuracy.
# The right femoral artery was also inserted with polyethylene, and a 3-way stopcock was used tool, where one end was connected to heparin solution to prevent embolism. The other end was connected to a Disposable Diaphragm Dome, TA10019, and linked to a transducer. Through an amplifier, a recorder recorded the overall and average arterial pressure; heart rate to evaluate the effect of drug on blood pressure and heart rate. Different concentrations 0.5; 1.0; 3.0 mg/kg of compounds were given to the rats via femoral vein and the differences in the heart rate and blood pressure were compared. Furthermore in another group, test compounds of concentration 0.5; 1.0; 3.0 mg/kg were separately given to different rats via femoral vein, and the differences in the heart rate and blood pressure were compared.
# β2 = molecular target: T2, β2 (Cavia porcellus, UniProt Q8K4Z4); test: Isolated guinea pig trachea, antagonism of L-isoproterenol relaxation (Schild plot); conditions: for β2 pA2 value, Trachea: vs L-isoproterenol, mean ± S.E. of six to eight
# T2 construct: a portion of tracheal approximately 4 cm long was removed; from tissue; host or cells: isolated guinea pig trachea (reserpinised animals)
# Experimental: Guinea pigs of weight between 250˜350 gm were used.
# After the guinea pigs were sacrificed, a slit was made along the neck, and a portion of tracheal approximately 4 cm long was removed. The tracheal was then placed in Kreb's solution aerated with a mixture of 95% O2 and 5% CO2 and maintained at room temperature about 22˜25° C. […] The two ends of the tracheal were clamped with frog-heart shaped clamps, one end was fixed at the bottom of tissue bath filled with 200 ml of Kreb's solution, maintained at 37° C., while the other end was connected to a force transducer. Through a COULBOURN AT-High-Speed Videograph, long isometric contractions were recorded. After the sample was given 1.5 gm of tension and equilibrated, the following experiments were performed:
# Then the tracheal was repeatedly washed with Kreb's solution for 20 minutes and […] of carbochol was added to cause contraction in the guinea pig's tracheal. When the contraction reached the maximum, every division of tracheal was used to complete two concentration response curve of L-isoproternol, one of them without administration of test compound and used as control; while the other curve was administered with 10^−7, 10^−6 and 10^−5 M test compounds for 30 minutes before concentration response curve was completed. This is the test group.
# Similar to the calculation method for isolated right atrium experiment.
# α1 = test: Isolated Wistar rat thoracic aorta, antagonism of norepinephrine contraction (Schild plot); conditions: vs norepinephrine, mean ± S.E. of six to eight
# Experimental: as §3
# After thoracic aorta had reached equilibrium in the tissue trough, cumulative administration of norepinephrine from 10^−10˜3×10^−4 M caused the blood vessel contract to increase tension continuously, and a cumulative dose-response curve was obtained. Then the norepinephrine was thoroughly washed off with Kreb's solution to recover the aorta stability. After the equilibrum was reached again for at least 60 minutes, different concentrations as 10^−7, 10^−6, 10^−5 M of test compounds were added. 30 minutes later, cumulative administration of norepinephrine from […] were carried out again, and another new cumulative dose-response curve was obtained. Administration of norepinephrine started from concentration 1×10^−10 M, and the concentration was raised 0.5 log each time. Cumulative administration interval was when the previous concentration reached its greatest effect, the next concentration would be immediately given. The time interval was approximately 3˜5 minutes, and the EC50 value could be obtained. From Schild plots, the pA2 of test compounds could be found. Calculation of pA2 value: similar to calculation method on isolated right atrium.
# T1 sequence (P18090 whole entry): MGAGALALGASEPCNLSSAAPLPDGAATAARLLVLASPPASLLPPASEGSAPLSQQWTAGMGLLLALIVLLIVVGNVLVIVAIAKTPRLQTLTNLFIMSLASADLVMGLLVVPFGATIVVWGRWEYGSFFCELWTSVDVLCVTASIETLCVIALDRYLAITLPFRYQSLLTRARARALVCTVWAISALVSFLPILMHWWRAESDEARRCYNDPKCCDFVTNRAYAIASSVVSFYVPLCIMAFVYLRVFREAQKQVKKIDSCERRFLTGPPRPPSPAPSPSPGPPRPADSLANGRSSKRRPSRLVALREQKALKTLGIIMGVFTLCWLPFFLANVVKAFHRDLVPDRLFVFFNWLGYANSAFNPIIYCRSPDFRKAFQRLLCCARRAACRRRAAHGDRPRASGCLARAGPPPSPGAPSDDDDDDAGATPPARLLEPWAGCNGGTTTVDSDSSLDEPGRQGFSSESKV
# T2 sequence (Q8K4Z4 whole entry): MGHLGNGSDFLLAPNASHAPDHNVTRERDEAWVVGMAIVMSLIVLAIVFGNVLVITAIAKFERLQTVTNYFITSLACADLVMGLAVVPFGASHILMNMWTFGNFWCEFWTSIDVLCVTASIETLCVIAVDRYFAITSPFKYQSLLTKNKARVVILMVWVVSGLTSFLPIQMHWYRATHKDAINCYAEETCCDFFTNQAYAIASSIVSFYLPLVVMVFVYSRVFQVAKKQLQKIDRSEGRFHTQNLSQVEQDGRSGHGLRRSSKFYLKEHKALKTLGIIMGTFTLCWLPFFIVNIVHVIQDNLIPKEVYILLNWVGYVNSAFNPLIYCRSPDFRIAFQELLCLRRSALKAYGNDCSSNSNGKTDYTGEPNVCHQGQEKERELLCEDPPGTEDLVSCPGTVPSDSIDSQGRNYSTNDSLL
"β1 Slope of Schild plot, Left atrium (β1 [1])","β1 pA2 value, Left atrium (β1 [1])","β1 Slope of Schild plot, Right atrium (β1 [2])","β1 pA2 value, Right atrium (β1 [2])","β2 Slope of Schild plot, Trachea (β2)","β2 pA2 value, Trachea (β2)",SMILES,"Calcium PKCa^−1 value, Aorta (Calcium)",Decrease of blood pressure [3],"α1 pA2 value, Aorta (α1)"
(0.83 ± 0.06),6.81 ± 0.08,(0.97 ± 0.10),6.61 ± 0.11,(0.85 ± 0.03),6.48 ± 0.07,COC(=O)C1=C(C)NC(C)=C(C(=O)OC)C1c1ccc(OCC(O)CNCCOc2ccccc2OC)cc1 (stereo not drawn) [Labedipinedilol-B],8.02 ± 0.04,60 ± 15 mmHg,7.55 ± 0.05
(0.99 ± 0.03),7.23 ± 0.07,(1.02 ± 0.04),7.01 ± 0.09,(0.92 ± 0.02),5.54 ± 0.16,COC(=O)C1=C(C)NC(C)=C(C(=O)OC)C1c1ccc(OCC(O)CN2CCN(c3ccccc3Cl)CC2)c(OC)c1 (stereo not drawn) [Labedipinedilol-C],8.12 ± 0.04,50 ± 17 mmHg,6.87 ± 0.08
(1.07 ± 0.05),6.15 ± 0.09,(1.12 ± 0.06),6.24 ± 0.06,(0.65 ± 0.03),5.07 ± 0.12,COC(=O)C1=C(C)NC(C)=C(C(=O)OC)C1c1ccc(OCC(O)CNCCOc2ccccc2Cl)c(OC)c1 (stereo not drawn) [Labedipinedilol-E],8.08 ± 0.04,58 ± 7 mmHg,8.46 ± 0.05

SMILES,"β1 Slope of Schild plot, Left atrium (β1 [1])","β1 pA2 value, Left atrium (β1 [1])","β1 Slope of Schild plot, Right atrium (β1 [2])","β1 pA2 value, Right atrium (β1 [2])","β2 Slope of Schild plot, Trachea (β2)","β2 pA2 value, Trachea (β2)","Calcium PKCa^−1 value, Aorta (Calcium)",Decrease of blood pressure [3],"α1 pA2 value, Aorta (α1)"
COC(=O)C1=C(C)NC(C)=C(C(=O)OC)C1c1ccc(OCC(O)CNCCOc2ccccc2C)c(OC)c1 (stereo not drawn) [Labedipinedilol-D],(1.12 ± 0.04),6.31 ± 0.12,(0.84 ± 0.03),7.23 ± 0.03,(1.10 ± 0.06),5.70 ± 0.06,8.23 ± 0.06,55 ± 9 mmHg,7.23 ± 0.05
